Data reported in patent EP3031808B1, “SALT OF IDELALISIB” (ratiopharm GmbH, priority 2014, dated 2016).
Where two headings read alike, the source gives them in different places.

Assays:
[1] = solubilities of salts of idelalisib in buffers and selected media
[2] = cited from earlier work
[3] = water demin. (pH dep.), 15 min.
[4] = water demin. (pH dep.), 60 min.

Row | Compound | solubilities ([1]; 0,01m HCl pH ∼2,2, 15 min.) | solubilities ([1]; 0,01m HCl pH ∼2,2, 60 min.) | solubilities ([1]; 20mM NaOAc pH 4.5, 15 min.) | solubilities ([1]; 20mM NaOAc pH 4.5, 60 min.) | solubilities ([1]; 50mM KH2PO4 pH 6.8, 15 min.) | solubilities ([1]; 50mM KH2PO4 pH 6.8, 60 min.) | solubilities ([1]; 0.1 % TPGS (FaSSIF), 15 min.) | solubilities ([1]; 0.1 % TPGS (FaSSIF), 60 min.) | solubilities ([1]; 2.0% TPGS (FeSSIF), 15 min.) | solubilities ([1]; 2.0% TPGS (FeSSIF), 60 min.) | solubility compared to the free base of idelalisib ([1]; general statement) | solubilities [1, 3] | solubilities [1, 4] | solubility in water ([2]; water at pH 1.2) | solubility in water ([2]; water at pH 7)
1 | Maleate | 2.445 | 2.655 | 0.411 | 0.475 | 0.355 | 0.393 | 0.662 | 1.121 | 6.798 | 6.984 | increased | 1.934 | 2.095 | – | –
2 | CC[C@H](Nc1ncnc2[nH]cnc12)c1nc2cccc(F)c2c(=O)n1-c1ccccc1 [Base, 5-fluoro-3-phenyl-2-[(1S)-1-(9H-purin-6-ylamino)propyl]quinazolin-4(3H)-one] | 0.947 | 1.051 | 0.092 | 0.100 | 0.086 | 0.088 | 0.141 | 0.107 | 1.056 | 1.172 | – | 0.098 | 0.081 | soluble | practically insoluble
